In brackets after ≈: the same amount, converted by molar mass.
Experiments:
Format in all cases: cell-based
[1] = tested on: Proteus mirabilis CMY-DHA; experiment: MIC against CMY-DHA producing strains, compound alone; conditions: row r36
Method: (§1) Gram-negative and Gram-positive bacterial strains used during the in vitro minimum inhibitory concentration (MIC) determination were obtained either from the American Type Culture Collection (ATCC) or from clinical specimens. All strains were characterized genotypically and the respective antibiotic resistance markers for each strain were identified.
(§2) Isolates were sub-cultured onto appropriate media and stocked in skim milk at −80° C. Following two subcultures from frozen stock, in vitro antimicrobial susceptibility testing was performed using the Clinical and Laboratory Standards Institute (CLSI) broth microdilution method. Briefly, fresh cultures were suspended in culture media to give a final stock inoculum size of 5×10^7 colony forming units per milliliter of broth (CFU/mL). Test compounds were prepared at a stock solution concentration equal to 128 μg/mL, then diluted to give a final an initial working concentration of 32 μg/mL. 100 μL of the stock solutions were added to the first wells in a 96-well plate and were then diluted using a 2-fold dilution method to give a range of 32-0.025 μg/mL. 100 μL of the bacterial suspensions were then added to the 96-well plates to give a final working inoculum size of 5×10^5 CFU/mL. The final compound concentration range was 16-0.0125 μg/mL. […] MICs for comparator agents were determined using custom-designed, in-house prepared 96-well broth microdilution panels.

[2] = tested on: Klebsiella pneumoniae CMY-DHA; experiment: as above; conditions: row r32
Method: as §1, §2

Escherichia coli CMY-DHA = experiment: as above
Method: as §1, §2

[3] = tested on: Escherichia coli Isogenic TEM-26; experiment: MIC, CLSI broth microdilution
Outline: (§3)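 MIC values come from CLSI broth microdilution against clinical and ATCC isolates whose resistance genes had been characterized. Compound dilutions were two-fold, with final concentrations between 16 and 0.0125 μg/mL.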

[4] = tested on: Serratia marcescens AmpC overexpressed; experiment: MIC, CLSI broth microdilution
Outline: as §3

[5] = tested on: Escherichia coli Empty pSMART plasmid; experiment: MIC, CLSI broth microdilution
Outline: (§4)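 Frozen stocks (−80 °C, skim milk) were subcultured twice. Fresh cultures were suspended in broth and added to 2-fold compound dilutions to a working inoculum of 5×10^5 CFU/mL. Final test concentrations spanned 16-0.0125 μg/mL, following the CLSI microdilution method.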

[6] = tested on: Serratia marcescens SME-2; experiment: MIC, CLSI broth microdilution; conditions: SME2
Outline: as §4

[7] = tested on: Escherichia coli Isogenic TEM-10; experiment: MIC, CLSI broth microdilution
Outline: as §3

[8] = tested on: Escherichia coli CTX-M-15; experiment: MIC, CLSI broth microdilution; conditions: CTXM15
Outline: as §4

[9] = tested on: Acinetobacter baumannii ATCC 19606; experiment: MIC, CLSI broth microdilution; conditions: ATCC19606
Outline: as §4

[10] = tested on: Escherichia coli pSMART_Ecloacae_AmpC; experiment: MIC, CLSI broth microdilution
Outline: as §3

SMILES | MIC [1] [µg/mL] | MIC [2] [µg/mL] | MIC (Escherichia coli CMY-DHA; strain of row r26) [µg/mL] | MIC (Escherichia coli CMY-DHA; strain of row r27) [µg/mL] | MIC (Escherichia coli CMY-DHA; strain of row r28) [µg/mL] | MIC (Escherichia coli CMY-DHA; strain of row r29) [µg/mL] | MIC (Escherichia coli CMY-DHA; strain of row r30) [µg/mL] | MIC (Escherichia coli CMY-DHA; strain of row r31) [µg/mL] | MIC (Escherichia coli CMY-DHA; strain of row r34) [µg/mL] | MIC (Escherichia coli CMY-DHA; strain of row r35) [µg/mL] | MIC [3] [µg/mL] | MIC [4] [µg/mL] | MIC [5] [µg/mL] | MIC [6] [µg/mL] | MIC [7] [µg/mL] | MIC [8] [µg/mL] | MIC [9] [µg/mL] | MIC [10] [µg/mL]
CC(C)(O/N=C(\C(=O)N[C@@H]1C(=O)N2C(C(=O)[O-])=C(C[n+]3ccccc3)CS[C@H]12)c1csc(N)n1)C(=O)O [Ceftazidime, ceftazidime, reference compound] | 16 (≈ 29.3 µM) | 16 (≈ 29.3 µM) | 32 (≈ 58.5 µM) | 32 (≈ 58.5 µM) | 8 (≈ 14.6 µM) | 32 (≈ 58.5 µM) | 4 (≈ 7.32 µM) | 32 (≈ 58.5 µM) | > 32 | > 32 | > 32 | 0.5 (≈ 0.915 µM) | 0.25 (≈ 0.457 µM) | 0.25 (≈ 0.457 µM) | > 32 | 4 (≈ 7.32 µM) | 8 (≈ 14.6 µM) | 
Nc1nc(/C(=N/OC2(C(=O)O)CC2)C(=O)N[C@H]2CON(C3(C(=O)O)C[C@H](N4C(=O)c5cc(O)c(O)cc5C4=O)C(=O)O3)C2=O)cs1 (stereo partly drawn) [Cmpd 1, (4S)-2-[(4S)-4-{[(2Z)-2-(2-amino-1,3-thiazol-4-yl)-2-{[(1-carboxycyclopropyl)oxy]imino}acetyl]amino}-3-oxo-1,2-oxazolidin-2-yl]-4-(5,6-dihydroxy-1,3-dioxo-1,3-dihydro-2H-isoindol-2-yl)-5-oxooxolane-2-carboxylic acid] | 2 (≈ 3.03 µM) | 1 (≈ 1.51 µM) | 1 (≈ 1.51 µM) | 0.06 (≈ 0.0908 µM) | 0.25 (≈ 0.378 µM) | 0.5 (≈ 0.757 µM) | 0.5 (≈ 0.757 µM) | 2 (≈ 3.03 µM) | 0.25 (≈ 0.378 µM) | 0.25 (≈ 0.378 µM) | 0.0149 (≈ 0.0226 µM) | 0.12 (≈ 0.182 µM) |  | 0.06 (≈ 0.0908 µM) | 0.0149 (≈ 0.0226 µM) | 1 (≈ 1.51 µM) | 0.03 (≈ 0.0454 µM) | 0.03 (≈ 0.0454 µM)
Nc1nc(/C(=N/OC2(C(=O)O)CCOCC2)C(=O)N[C@H]2CON(C3(C(=O)O)C[C@H](N4C(=O)c5cc(O)c(O)cc5C4=O)C(=O)O3)C2=O)cs1 (stereo partly drawn) [Cmpd 8, 4-({(Z)-[1-(2-amino-1,3-thiazol-4-yl)-2-({(4S)-2-[(4S)-2-carboxy-4-(5,6-dihydroxy-1,3-dioxo-1,3-dihydro-2H-isoindol-2-yl)-5-oxooxolan-2-yl]-3-oxo-1,2-oxazolidin-4-yl}amino)-2-oxoethylidene]amino}oxy)oxane-4-carboxylic acid] | 4 (≈ 5.68 µM) | 1 (≈ 1.42 µM) | 1 (≈ 1.42 µM) | 0.06 (≈ 0.0852 µM) | 0.25 (≈ 0.355 µM) | 0.5 (≈ 0.71 µM) | 0.25 (≈ 0.355 µM) | 1 (≈ 1.42 µM) | 0.12 (≈ 0.17 µM) | 0.25 (≈ 0.355 µM) | 0.0149 (≈ 0.0211 µM) | 0.06 (≈ 0.0852 µM) |  | 0.06 (≈ 0.0852 µM) | 0.0149 (≈ 0.0211 µM) | 2 (≈ 2.84 µM) | 0.12 (≈ 0.17 µM) | 
Nc1nc(/C(=N/OC2(C(=O)O)CCC(F)(F)CC2)C(=O)N[C@H]2CON(C3(C(=O)O)C[C@H](N4C(=O)c5cc(O)c(O)cc5C4=O)C(=O)O3)C2=O)cs1 (stereo partly drawn) [Cmpd 10, (4S)-2-[(4S)-4-{[(2Z)-2-(2-amino-1,3-thiazol-4-yl)-2-{[(1-carboxy-4,4-difluorocyclohexyl)oxy]imino}acetyl]amino}-3-oxo-1,2-oxazolidin-2-yl]-4-(5,6-dihydroxy-1,3-dioxo-1,3-dihydro-2H-isoindol-2-yl)-5-oxooxolane-2-carboxylic acid] | 0.12 (≈ 0.162 µM) | 0.5 (≈ 0.677 µM) | 0.5 (≈ 0.677 µM) | 0.03 (≈ 0.0406 µM) | 0.25 (≈ 0.338 µM) | 0.5 (≈ 0.677 µM) | 0.25 (≈ 0.338 µM) | 1 (≈ 1.35 µM) | 0.06 (≈ 0.0812 µM) | 0.12 (≈ 0.162 µM) |  | 0.12 (≈ 0.162 µM) | ≤ 0.015 | 0.06 (≈ 0.0812 µM) |  | 1 (≈ 1.35 µM) | 0.12 (≈ 0.162 µM) | 
Nc1nc(/C(=N/OC2(C(=O)O)CC2)C(=O)N[C@H]2CON(C3(C(=O)O)C[C@H](N4C(=O)c5cc(O)c(O)cc5C4=O)C(=O)O3)C2=O)ns1 (stereo partly drawn) [Cmpd 18, (4S)-2-[(4S)-4-{[(2Z)-2-(5-amino-1,2,4-thiadiazol-3-yl)-2-{[(1-carboxycyclopropyl)oxy]imino}acetyl]amino}-3-oxo-1,2-oxazolidin-2-yl]-4-(5,6-dihydroxy-1,3-dioxo-1,3-dihydro-2H-isoindol-2-yl)-5-oxooxolane-2-carboxylic acid] | 1 (≈ 1.51 µM) | 1 (≈ 1.51 µM) | 0.5 (≈ 0.756 µM) | 0.12 (≈ 0.181 µM) | 0.25 (≈ 0.378 µM) | 1 (≈ 1.51 µM) | 0.5 (≈ 0.756 µM) | 2 (≈ 3.02 µM) | 0.5 (≈ 0.756 µM) | 0.5 (≈ 0.756 µM) |  | 0.5 (≈ 0.756 µM) | 0.0149 (≈ 0.0225 µM) | 0.06 (≈ 0.0907 µM) |  | 1 (≈ 1.51 µM) | 0.25 (≈ 0.378 µM) | 
Nc1nc(/C(=N/OC2(C(=O)O)CCOCC2)C(=O)N[C@H]2CON(C3(C(=O)O)C[C@H](N4C(=O)c5cc(O)c(O)nc5C4=O)C(=O)O3)C2=O)cs1 (stereo partly drawn) [Cmpd 26, 4-({(Z)-[1-(2-amino-1,3-thiazol-4-yl)-2-({(4S)-2-[(4S)-2-carboxy-4-(2,3-dihydroxy-5,7-dioxo-5,7-dihydro-6H-pyrrolo[3,4-b]pyridin-6-yl)-5-oxooxolan-2-yl]-3-oxo-1,2-oxazolidin-4-yl}amino)-2-oxoethylidene]amino}oxy)oxane-4-carboxylic acid] | 4 (≈ 5.67 µM) | 4 (≈ 5.67 µM) | 2 (≈ 2.83 µM) | 0.25 (≈ 0.354 µM) | 1 (≈ 1.42 µM) | 2 (≈ 2.83 µM) | 1 (≈ 1.42 µM) | 8 (≈ 11.3 µM) | 1 (≈ 1.42 µM) | 1 (≈ 1.42 µM) |  | 0.5 (≈ 0.709 µM) |  | 0.5 (≈ 0.709 µM) | 0.03 (≈ 0.0425 µM) | 4 (≈ 5.67 µM) | 1 (≈ 1.42 µM) | 
Nc1nc(/C(=N/OC2(C(=O)O)CC2)C(=O)N[C@H]2CON(C3(C(=O)O)C[C@H](N4Cc5cc(O)c(O)cc5C4=O)C(=O)O3)C2=O)cs1 (stereo partly drawn) [Cmpd 28, (4S)-2-[(4S)-4-{[(2Z)-2-(2-amino-1,3-thiazol-4-yl)-2-{[(1-carboxycyclopropyl)oxy]imino}acetyl]amino}-3-oxo-1,2-oxazolidin-2-yl]-4-(5,6-dihydroxy-1-oxo-1,3-dihydro-2H-isoindol-2-yl)-5-oxooxolane-2-carboxylic acid] | 2 (≈ 3.09 µM) | 2 (≈ 3.09 µM) | 4 (≈ 6.19 µM) | 0.25 (≈ 0.387 µM) | 0.5 (≈ 0.773 µM) | 4 (≈ 6.19 µM) | 1 (≈ 1.55 µM) | 8 (≈ 12.4 µM) | 1 (≈ 1.55 µM) | 2 (≈ 3.09 µM) | 0.03 (≈ 0.0464 µM) | 0.25 (≈ 0.387 µM) |  | 0.12 (≈ 0.186 µM) | 0.03 (≈ 0.0464 µM) | 1 (≈ 1.55 µM) | 0.12 (≈ 0.186 µM) | 
